Several values for one entry are separate records, joined by “and”; a condition that tells them apart may be missing. Identical values can stand only once.

A word on the pKd: it is −log10 of the Kd, conventionally taken in molar units. Low values mean a high Kd, high ones a low Kd.

In test [1] the target is T1, CHOK1 cells engineered to overexpress human CCR2 (Homo sapiens, UniProt P41597).
T1 construct: expressed in transfected cells; host or cells: CHOK1 cells
Nature of the test: Antibody dependent cellular cytotoxicity (ADCC) reporter assay (Example 199). Conditions: with anti-cotinine antibody SEQ ID NO: 11/12; CHOK1-human CCR2 target cells, Jurkat FcγRIIIa NFAT-luciferase reporter cells; 12-18 hours; read-out: ADCC Reporter Assay pEC50 (converted). The format is cell-based. In outline: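 Potency is reported as pEC50 from a nonlinear fit, averaged over runs, using luciferase signal divided by that of compound-free wells. The readout comes from NFAT-luciferase Jurkat cells expressing FcγRIIIa, mixed for 12–18 h with human CCR2-overexpressing CHOK1 cells, 1 pM–10 μM ARM compound and 0.01–200 μg/mL Fc-enhanced anti-cotinine IgG1.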
Background: In a reporter assay the amount or activity of a reporter protein is the signal.

The target in test [2] is Anti-cotinine antibody SEQ ID NO: 9 / SEQ ID NO: 10 (humanized version). In words: Binding of humanized anti-cotinine antibody to ARM compounds by SPR, Biacore 8k, 25° C. (Example 202). Conditions: top concentration 2.50E−08 M. The source says:
Anti-cotinine antibodies having a heavy chain sequence of SEQ ID NO: 9 and a light chain sequence of SEQ ID NO: 10 (humanized version) or a heavy chain sequence of SEQ ID NO: 11 and a light chain sequence of SEQ ID NO: 12 (rabbit version) were captured via the Fc domain to a protein A or A/G surface on flow cell 2 of a CM5 sensor chip using the Biacore 8k.
After antibody capture, a 1500 second wait step was included to reduce drift in the binding step. ARM compounds of Formula (I) were then flowed over the captured antibodies at varying top concentrations ranging from 250 nM to 4 μM (see Table 6 below for top concentration values). The top concentration was diluted 4-fold over 5 dilutions (with a 0 nM compound cycle included to blank subtract the data). Association and dissociation times of the ARMs compounds of Formula (I) varied between experiments as follows and indicated in Table 6 below: reference 1—association for 600 seconds and dissociation for 1200 seconds at 20 μl/min; reference 2—association for 240 seconds and dissociation for 300 seconds at 30 μl/min; reference 3—association for 360 seconds and dissociation for 600 seconds at 30 μl/min. Anti-cotinine antibody bound to the protein A or A/G surface was regenerated using 50 mM NaOH. Experiments were run at 25° C. at pH 7.4 using HBS-EP+ buffer using Biacore 8K control software and evaluated using Biacore Insight Evaluation software. Curves were fit with the 1:1 kinetic fit inherent to the software, utilising a local Rmax and local drift setting.
Anti-cotinine antibody was tested for binding to ARMs compounds of Formula (I) of the invention in the above assay in or more experimental runs and the results are shown in Table 6 below. Affinity is reported as a pKd value. The pKd value is the negative log of the Kd value, wherein the Kd value is the dissociation constant measured in molar (M) as noted above. For compounds tested in more than one experimental run, the pKd value is reported as an average.
(Surface plasmon resonance follows binding to a sensor surface in real time, without labels.)

Test [3] deals with CCR2 expressing cells (CD11b+Ly6c+ Hi) in peripheral blood. In words: In vivo depletion assay, flow cytometry of peripheral blood (Example 201). Also noted: species or system Human CCR2 (hCCR2) knock-in mice (C57 background). Particulars: hCCR2 knock-in mice; IV 0.1 mpk compound + 10 mpk anti-cotinine antibody (SEQ ID NO: 13/14); peripheral blood at 48 hr. Here is the method:
Stock solution preparation: Stock solutions of compounds of Formula (I) were prepared at 20 mg/mL and 100 mg/mL in DMSO for PK/PD and dose tolerability studies respectively. Stock solutions were stored at −20° C. until further usage.
Formulations preparation: On the day of experiment, the stock solution of the compound of Formula (I) was removed from storage at −20° C. and thawed at room temperature. Anti-cotinine antibody having a heavy chain sequence of SEQ ID NO: 13 and a light chain sequence of SEQ ID NO: 14 (rabbit variable region sequence with mouse IgG2a Fc domain), if required was removed from storage at −80° C. and thawed at room temperature. Antibody vials were immediately transferred into wet ice after thawing. Compounds of Formula (I) were further diluted in DMSO as per experimental requirements.
Formulation composition: The formulation composition was Saline:DMSO:PBS. Saline was added based on the quantity required and then stock solution of the compound of Formula (I) prepared in DMSO, followed by addition of antibody in PBS. Formulations were incubated at room temperature for 30 minutes before administration to the mouse. DMSO was used at 1 to 2% (v/v) in the final formulation.
After bleeding, each mouse was sacrificed by cervical dislocation.
CCR2 depletion in peripheral blood was determined by flow cytometry. Briefly, peripheral blood was collected from all animals at the end of study termination and processed. Blood samples were lysed using 1× RBC Lysis buffer and the resulting cell pellet was washed twice in FACS buffer (HBSS containing 5% FBS). Cells were subjected to Fc blocking using mouse Fc block from Biolegend (Trustain, anti-mouse CD16/32, Cat: 101319) to block non-specific binding followed by surface staining for immune markers (CD45, CD3, CD11b, Ly6C, human CCR2). Surface staining was done for 30 minutes in ice and cells were washed twice to remove unbound antibodies. Cells were stained with 7AAD to determine viability and acquired on BD FACSVerse flow cytometer. Appropriate FMO controls and single-color controls were included in the experiment for gating and compensation respectively.
Percent depletion of CD11b+Ly6c+ Hi cells and CCR2 expression for the different treatment groups was determined.
For orientation: In flow cytometry, cells or beads pass a laser one at a time.

The mark [4] stands for this setting: reference 3: association 360 s, dissociation 600 s at 30 μl/min.

In the case of `CC(C)N(C)[C@@H]1CC[C@H](N2CC[C@H](Nc3ncnc4ccc(C(F)(F)F)cc34)C2=O)[C@H](NC(=O)[C@H]2CC[C@H](NC(=O)CCCO[C@H]3CC[C@H](OCCNC(=O)[C@H]4CC(=O)N(C)[C@@H]4c4cccnc4)CC3)CC2)C1` [Example 1, (2S,3S)-N-(2-(((1R,4S)-4-(4-(((1R,4R)-4-(((1R,2S,5R)-5-(Isopropyl(methyl)amino)-2-((S)-2-oxo-3-((6-(trifluoromethyl)quinazolin-4-yl)amino)pyrrolidin-1-yl)cyclohexyl)carbamoyl)cyclohexyl)amino)-4-oxobutoxy)cyclohexyl)oxy)ethyl)-1-methyl-5-oxo-2-(pyridin-3-yl)pyrrolidine-3-carboxamide], the EC50 in test [1] is 3.25 nM and 6.61 nM. Moreover, the kd in test [2] (reference 1: association 600 s, dissociation 1200 s at 20 μl/min) was 0.000456 s⁻¹ and 0.000649 s⁻¹. In test [2] (setting [4]), this molecule gave a ka of 1.64e+06 M⁻¹ s⁻¹, a kd of 0.000414 s⁻¹ and a pKd of 9.6.
For the molecule `CN1C(=O)C[C@H](C(=O)NCCO[C@H]2CC[C@H](OCCCC(=O)N[C@H]3CC[C@H](C(=O)N[C@@H]4C[C@H](NC(C)(C)C)CC[C@@H]4N4CC[C@H](Nc5ncnc6ccc(C(F)(F)F)cc56)C4=O)CC3)CC2)[C@H]1c1cccnc1` [Example 10], the EC50 in test [1] is 3.16 nM. In test [2] (setting [4]), this molecule returned a ka of 1.42e+06 M⁻¹ s⁻¹, a kd of 0.000484 s⁻¹ and a pKd of 9.47.
`CN1C(=O)C[C@H](C(=O)NCCOCCOCCOCCOCCOCCC(=O)N[C@@H]2C[C@H](NC(C)(C)C)CC[C@@H]2N2CC[C@H](Nc3ncnc4ccc(C(F)(F)F)cc34)C2=O)[C@H]1c1cccnc1` [Example 37]: in test [3], the “% Depletion of CCR2 expressing cells” value amounted to 75%.
On the same count and under the same terms, the figure for `CN1C(=O)C[C@H](C(=O)NCCOCCOCCOCCOCCOCCOCCC(=O)N[C@@H]2C[C@H](NC(C)(C)C)CC[C@@H]2N2CC[C@H](Nc3ncnc4ccc(C(F)(F)F)cc34)C2=O)[C@H]1c1cccnc1` [Example 38] is 84.55%.

For the origin of these results see patent US20250136722A1, “CYTOTOXICITY TARGETING CHIMERAS” (GLAXOSMITHKLINE INTELLECTUAL PROPERTY DEVELOPMENT LIMITED, priority 2021, published 2025).
